Test results published in patent US20110230472A1, “RING-FUSED AZOLE DERIVATIVE HAVING PI3K-INHIBITING ACTIVITY” (Shionogi & Co., Ltd., priority 2008, published 2011).

Legend:
PI-3 kinase γ = PI-3 kinase γ (Homo sapiens, UniProt P48736); test: PI3Kγ inhibitory activity, PI3-kinase HTRF assay (inhibition ratio); format: biochemical; settings: 0.5 h; for inhibition at 50 µM: compound at 50 μM
In short: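 PI3Kγ preincubated 10 min with compound and PIP2 substrate (MgCl2, DTT), then ATP added for 30 min at room temperature. PIP3 detected by HTRF (665/620 nm ratio) after 18 h. Inhibition ratio at 50 or 10 μmol/L, normalised to no-compound and no-enzyme controls.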

[1] = tested on: AKT phosphorylation in human monocyte-like cell line THP-1; test: AKT phosphorylation inhibitory activity in MCP-1-stimulated THP-1 cells (ELISA); format: cell-based; settings: 1 μmol/L solution of each compound, MCP-1 stimulation, read-out: AKT phosphorylation inhibition ratio
Description: (1) The AKT phosphorylation inhibitory activity of a compound was evaluated according to the following procedure. (2) Human monocyte-like cell line THP-1 was washed with RPMI-1640 media, incubated in the presence of 5% CO2 at 37° C. for 3 hours, washed with Hank's balanced salt solution (HBSS), adjusted to a cell concentration of 6.6×10^6/mL, and then used in an experiment. (3) 30 μL of the cell suspension and 60 μL of each compound solution containing 0.2% DMSO/HBSS were mixed and then preincubated at 37° C. for 5 minutes. 30 μL of HBSS containing 4 μg/mL of MCP-1 was added thereto and then incubated for 30 seconds at 37° C. (4) 30 μl of a cell lysate (20 mmol/L Tris-HCl (pH 7.5), 150 mmol/L NaCl, 1 mmol/L Na2EDTA, 1 mmol/L EGTA, 1% Triton, 2.5 mmol/L sodium pyrophosphate, 1 mmol/L β-glycerophosphate, 1 mmol/L Na3VO4, 1 μg/ml leupeptin, 50 nmol/L APMSF) was added thereto to lyse cells. (5) The amount of AKT phosphorylation in the cell lysate was measured by ELISA method. (6) Anti-phospho-Akt (Ser473) antibodies (clone 193H12, derived from a rabbit) were immobilized onto the solid phase of a micro well plate. 100 μL of the prepared cell lysate was added to the micro well plate, incubated for 2 hours at 37° C., and then washed four times with Phosphate Buffered Saline containing 0.05% Tween-20. (7) An anti-AKT1 antibody (clone 2H10, derived from a mouse) was added thereto, incubated for 1 hour at 37° C., washed similarly, and then reacted with an HRP-labeled anti-mouse IgG antibody. (8) After incubating at 37° C. for 30 minutes and then washing similarly, 100 μL of TMB (3,3′,5,5″-tetramethylbenzidine) was added thereto, followed by reacting at room temperature for 30 minutes. (9) 100 μL of 1 mol/L sulfuric acid was added to quench the color reaction and then the absorbance at 450 nm was measured. (10) A series of diluted cell lysates of a positive control (a sample in the absence of a compound) were used to prepare a calibration curve, the amount of AKT phosphorylation in a sample in the absence of MCP-1 was defined as 0% activity to calculate an inhibition ratio. The measurement was performed for a 1 μmol/L solution of each compound.

Metabolic stability test = format: in vitro ADME; settings: human liver microsome 0.5 mg protein/mL, 1 mmol/L NADPH, 37° C.
Description: After a subject compound was reacted for a certain time using a pooled human liver microsome commercially available, a reacted sample and an unreacted sample are compared to calculate a survival ratio, and then the degree of metabolism in the liver was evaluated.
0.2 mL of a buffer solution (50 mmol/L of Tris-HCl in pH 7.4, 150 mmol/L of potassium chloride, and 10 mmol/L of magnesium chloride) containing a human liver microsome of 0.5 mg protein/mL was reacted in the presence of 1 mmol/L NADPH at 37° C. for 0 or 30 minutes (oxidative reaction). After reacting, 50 μL of the reaction solution was added to 100 μL of a solution of methanol/acetonitrile (1/1 (v/v)), mixed, and then centrifuged at 3000 rpm for 15 minutes. The test compound in the supernatant was quantitated with LC/MS/MS. The amount of the compound at a reaction time of 0 minute was defined as 100% and, based on that, the percentage of the test compound remained after reacting for 30 minutes was calculated.

Solubility test = format: physicochemical; settings: kinetic from dmso stock; artificial intestinal juice pH 6.8, 1% DMSO, 25° C. for 16 hours
Description: The solubility of a compound was determined under a condition in which 1% DMSO was added. 10 mmol/L compound solution was prepared using DMSO, and then 6 μL of the compound solution was added to 594 μL of artificial intestinal juice in pH 6.8 (to 250 mL of 0.2 mol/L potassium dihydrogen phosphate reagent solution was added 118 mL of 0.2 mol/L NaOH reagent solution and water to provide a final volume of 1000 mL). After standing at 25° C. for 16 hours, the mixed solution was filtered with suction. The filtrate was diluted twice with methanol/water (1/1), and then a concentration in the filtration was measured with HPLC or LC/MS/MS by the absolute calibration method.

CYP1A2 = molecular target: T1, CYP1A2 (Homo sapiens, UniProt P05177); test: CYP inhibition test, pooled human liver microsome, CYP1A2; format: in vitro ADME; settings: O-de-ethylation of 7-ethoxyresorufin
T1 construct: enzyme: pooled human liver microsome 0.2 mg protein/mL; from tissue; host or cells: pooled human liver microsome
T1 sequence (P05177 1-516): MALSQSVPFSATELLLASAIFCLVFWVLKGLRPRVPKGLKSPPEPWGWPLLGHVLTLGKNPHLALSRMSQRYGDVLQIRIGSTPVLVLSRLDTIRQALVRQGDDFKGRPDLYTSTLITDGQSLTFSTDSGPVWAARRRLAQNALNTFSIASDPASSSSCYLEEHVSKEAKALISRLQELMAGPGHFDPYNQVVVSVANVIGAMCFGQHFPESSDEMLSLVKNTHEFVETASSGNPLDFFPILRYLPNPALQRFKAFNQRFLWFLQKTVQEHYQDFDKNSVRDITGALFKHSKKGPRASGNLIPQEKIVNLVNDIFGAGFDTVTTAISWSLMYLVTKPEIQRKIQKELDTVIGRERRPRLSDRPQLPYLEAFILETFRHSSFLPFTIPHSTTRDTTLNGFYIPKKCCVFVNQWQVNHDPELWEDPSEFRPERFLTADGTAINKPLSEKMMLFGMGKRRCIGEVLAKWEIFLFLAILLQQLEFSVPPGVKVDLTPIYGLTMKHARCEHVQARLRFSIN
Excerpt: (§1) O-de-ethylation of 7-ethoxyresorufin (CYP1A2), methyl-hydroxylation of tolbutamide (CYP2C9), 4′-hydroxylation of mephenyloin (CYP2C19), O-demethylation of dextromethorphan (CYP2D6), and hydroxylation of terfenadine (CYP3A4), which are typical substrate for metabolic reactions of human main CYP5 molecular species (CYP1A2, 2C9, 2C19, 2D6, and 3A4), were adopted as indexes.
(§2) The reaction conditions are as follows: substrate: 0.5 μmol/L of ethoxyresorufin (CYP1A2), 100 μmol/L of tolbutamide (CYP2C9), […] of S-mephenyloin (CYP2C19), 5 μmol/L of dextromethorphan (CYP2D6), and 1 μmol/L of terfenadine (CYP3A4); reaction time; 15 minutes; reaction temperature: 37° C.; enzyme: pooled human liver microsome 0.2 mg protein/mL; test drug concentration: 1, 5, 10, and 20 μmol/L (4 points).
(§3) In a 96-well plate, as a reaction solution, five kinds of substrates, a human liver microsome, and a test drug were added to 50 mmol/L Hepes buffer solution in the aforementioned ratio. A coenzyme NADPH was added to start a metabolic reaction, which is an index. After reacting at 37° C. for 15 minutes, a solution of methanol/acetonitrile (1/1 (v/v)) was added to quench the reaction. After centrifugation at 3000 rpm for 15 minutes, resorufin (CYP1A2 metabolite) in the supernatant was quantitated with a fluorescence multilabel counter, and hydroxylated tolbutamide (CYP2C9 metabolite), 4′-hydroxylated mephenyloin (CYP2C19 metabolite), […], terfenadine in alcohol form (CYP3A4 metabolite) were quantitated with LC/MS/MS.
(§4) The case wherein only DMSO (a solvent which dissolved a drug) was added to a reaction system was defined as a control (100%). When a test drug solution was added, the remaining activity (%) at each concentration was calculated, and then IC50 was calculated with a concentration and an inhibition ratio by an inverse estimation using a logistic model.

CYP2C9 = molecular target: T2, CYP2C9 (Homo sapiens, UniProt P11712); test: CYP inhibition test, pooled human liver microsome, CYP2C9; format: in vitro ADME; settings: methyl-hydroxylation of tolbutamide
T2 construct: enzyme: pooled human liver microsome 0.2 mg protein/mL; from tissue; host or cells: pooled human liver microsome
Excerpt: as §1, §2, §3, §4

CYP2C19 = molecular target: T3, CYP2C19 (Homo sapiens, UniProt P33261); test: CYP inhibition test, pooled human liver microsome, CYP2C19; format: in vitro ADME; settings: 4′-hydroxylation of mephenyloin
T3 construct: enzyme: pooled human liver microsome 0.2 mg protein/mL; from tissue; host or cells: pooled human liver microsome
Excerpt: as §1, §2, §3, §4

CYP2D6 = molecular target: T4, CYP2D6 (Homo sapiens, UniProt P10635); test: CYP inhibition test, pooled human liver microsome, CYP2D6; format: in vitro ADME; settings: O-demethylation of dextromethorphan
T4 construct: enzyme: pooled human liver microsome 0.2 mg protein/mL; from tissue; host or cells: pooled human liver microsome
Excerpt: as §1, §2, §3, §4

CYP3A4 = molecular target: T5, CYP3A4 (Homo sapiens, UniProt P08684); test: CYP inhibition test, pooled human liver microsome, CYP3A4; format: in vitro ADME; settings: hydroxylation of terfenadine
T5 construct: enzyme: pooled human liver microsome 0.2 mg protein/mL; from tissue; host or cells: pooled human liver microsome
Excerpt: as §1, §2, §3, §4

T4 sequence (P10635 whole entry): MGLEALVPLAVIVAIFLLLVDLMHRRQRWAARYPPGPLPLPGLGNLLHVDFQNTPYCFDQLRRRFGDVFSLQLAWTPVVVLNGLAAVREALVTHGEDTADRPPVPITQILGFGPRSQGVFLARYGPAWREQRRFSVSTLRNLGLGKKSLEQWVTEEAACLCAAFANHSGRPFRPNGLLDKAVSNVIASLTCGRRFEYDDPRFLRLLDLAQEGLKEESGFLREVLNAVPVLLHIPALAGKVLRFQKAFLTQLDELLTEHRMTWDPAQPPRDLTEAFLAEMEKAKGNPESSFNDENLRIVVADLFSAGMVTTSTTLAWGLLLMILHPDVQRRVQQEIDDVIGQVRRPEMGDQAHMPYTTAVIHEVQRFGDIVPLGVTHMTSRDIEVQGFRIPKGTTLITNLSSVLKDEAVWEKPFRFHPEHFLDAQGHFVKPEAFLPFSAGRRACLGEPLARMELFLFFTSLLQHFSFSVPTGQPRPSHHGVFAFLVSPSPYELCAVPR
T2 sequence (P11712 whole entry): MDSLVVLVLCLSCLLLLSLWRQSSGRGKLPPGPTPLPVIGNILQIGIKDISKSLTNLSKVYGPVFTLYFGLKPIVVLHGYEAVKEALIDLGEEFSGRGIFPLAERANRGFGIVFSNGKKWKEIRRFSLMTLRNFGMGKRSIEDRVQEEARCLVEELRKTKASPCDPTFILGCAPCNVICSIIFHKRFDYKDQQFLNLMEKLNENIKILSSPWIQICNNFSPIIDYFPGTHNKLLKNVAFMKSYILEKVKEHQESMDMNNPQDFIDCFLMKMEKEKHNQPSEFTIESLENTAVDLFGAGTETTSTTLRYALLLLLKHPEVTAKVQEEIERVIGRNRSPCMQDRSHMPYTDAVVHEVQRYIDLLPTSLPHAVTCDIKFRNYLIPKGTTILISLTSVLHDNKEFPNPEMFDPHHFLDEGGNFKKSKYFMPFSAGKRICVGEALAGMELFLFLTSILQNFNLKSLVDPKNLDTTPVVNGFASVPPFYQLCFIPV
T3 sequence (P33261 whole entry): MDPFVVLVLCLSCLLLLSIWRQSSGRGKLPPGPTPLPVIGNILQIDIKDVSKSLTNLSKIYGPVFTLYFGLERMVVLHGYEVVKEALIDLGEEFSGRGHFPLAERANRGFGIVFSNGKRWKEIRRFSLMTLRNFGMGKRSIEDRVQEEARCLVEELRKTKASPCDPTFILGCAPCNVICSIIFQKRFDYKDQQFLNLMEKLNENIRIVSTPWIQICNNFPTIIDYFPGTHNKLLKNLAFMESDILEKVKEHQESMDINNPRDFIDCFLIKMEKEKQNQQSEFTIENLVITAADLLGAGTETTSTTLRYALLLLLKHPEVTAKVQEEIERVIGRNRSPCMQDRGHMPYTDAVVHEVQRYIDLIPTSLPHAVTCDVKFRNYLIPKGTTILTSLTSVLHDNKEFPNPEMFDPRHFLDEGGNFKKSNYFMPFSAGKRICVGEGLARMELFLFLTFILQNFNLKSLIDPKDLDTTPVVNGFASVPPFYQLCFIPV
T5 sequence (P08684 whole entry): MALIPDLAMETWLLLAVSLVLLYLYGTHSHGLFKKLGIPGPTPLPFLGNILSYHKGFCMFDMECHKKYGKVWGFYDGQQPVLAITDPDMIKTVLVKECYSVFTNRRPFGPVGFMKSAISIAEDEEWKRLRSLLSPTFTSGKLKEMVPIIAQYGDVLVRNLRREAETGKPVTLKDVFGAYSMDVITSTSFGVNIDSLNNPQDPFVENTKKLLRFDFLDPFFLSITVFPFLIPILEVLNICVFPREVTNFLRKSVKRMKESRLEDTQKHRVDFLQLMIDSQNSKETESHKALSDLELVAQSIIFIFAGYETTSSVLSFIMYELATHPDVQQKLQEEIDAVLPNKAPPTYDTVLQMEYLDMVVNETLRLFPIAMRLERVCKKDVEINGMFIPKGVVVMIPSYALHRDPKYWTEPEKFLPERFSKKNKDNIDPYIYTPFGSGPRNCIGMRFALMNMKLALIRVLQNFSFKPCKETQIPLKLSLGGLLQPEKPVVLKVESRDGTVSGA
Chain of PI-3 kinase γ (P48736 whole entry): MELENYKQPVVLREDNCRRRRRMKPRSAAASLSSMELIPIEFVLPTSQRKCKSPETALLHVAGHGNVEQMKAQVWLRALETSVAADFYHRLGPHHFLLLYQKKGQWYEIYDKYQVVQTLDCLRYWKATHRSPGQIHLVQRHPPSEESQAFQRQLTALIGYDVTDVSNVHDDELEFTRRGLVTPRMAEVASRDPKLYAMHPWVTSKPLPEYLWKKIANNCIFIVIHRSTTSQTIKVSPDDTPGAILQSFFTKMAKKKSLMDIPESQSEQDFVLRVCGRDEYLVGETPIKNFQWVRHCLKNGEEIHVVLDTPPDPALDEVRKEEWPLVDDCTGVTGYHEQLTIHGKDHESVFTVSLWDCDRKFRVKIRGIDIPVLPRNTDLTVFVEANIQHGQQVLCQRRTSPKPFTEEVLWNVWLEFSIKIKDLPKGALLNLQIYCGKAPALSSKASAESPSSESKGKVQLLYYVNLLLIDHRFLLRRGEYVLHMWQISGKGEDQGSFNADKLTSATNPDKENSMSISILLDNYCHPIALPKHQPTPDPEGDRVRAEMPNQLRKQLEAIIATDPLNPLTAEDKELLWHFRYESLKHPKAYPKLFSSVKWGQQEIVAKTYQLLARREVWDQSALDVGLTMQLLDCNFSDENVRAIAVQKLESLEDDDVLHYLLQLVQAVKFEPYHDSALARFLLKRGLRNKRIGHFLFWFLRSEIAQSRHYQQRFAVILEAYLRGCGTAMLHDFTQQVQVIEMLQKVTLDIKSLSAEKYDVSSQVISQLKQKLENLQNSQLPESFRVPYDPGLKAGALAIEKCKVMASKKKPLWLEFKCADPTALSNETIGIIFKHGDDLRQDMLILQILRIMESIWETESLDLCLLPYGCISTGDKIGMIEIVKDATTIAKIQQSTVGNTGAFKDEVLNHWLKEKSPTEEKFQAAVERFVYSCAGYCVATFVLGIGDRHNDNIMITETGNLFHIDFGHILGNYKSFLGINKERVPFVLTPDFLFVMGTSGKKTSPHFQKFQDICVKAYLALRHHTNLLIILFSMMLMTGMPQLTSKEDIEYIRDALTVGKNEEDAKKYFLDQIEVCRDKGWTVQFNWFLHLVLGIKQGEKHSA

## COc1cc(N2CCc3nc(NC(=O)NCCC(=O)N4CCCC4)sc3C2)nc(OC)n1 [Compound I-308]
PI-3 kinase γ; compound at 10 μmol/L
  inhibition at 10 µM: ≥ 95%
[1]
  inhibition: 98.4%
Metabolic stability test;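 further: 100% equals the compound amount at 0 min reaction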
  percentage of the test compound remained after reacting for 30 minutes: 92.2%

## CNC(=O)Nc1nc2c(s1)CN(c1cncc(OC)n1)CC2 [Compound I-378]
PI-3 kinase γ; compound at 10 μmol/L
  inhibition at 10 µM: ≥ 95%
[1]
  inhibition: > 99.5%
Solubility test
  solubility at 16 h: > 50 µM

## CC(=O)Nc1cc2n(n1)CCN2c1ccc2c(c1)CCN(C)C2=O [Compound I-287]
PI-3 kinase γ; PI3Kγ, compound at 10 μM
  inhibition at 10 µM: ≥ 95%
[1]
  inhibition: > 99.5%
Solubility test
  solubility at 16 h: > 50 µM
Metabolic stability test;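 further: 100% equals the compound amount at 0 min reaction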
  percentage of the test compound remained after reacting for 30 minutes: 94.9%

## CC(=O)Nc1cc2n(n1)CCN2c1cccc(Cl)c1 [Compound I-198]
PI-3 kinase γ; PI3Kγ
  inhibition at 50 µM: 94%
[1]
  inhibition: 97.3%
Solubility test
  solubility at 16 h: > 50 µM

## CNC(=O)Nc1cc2n(n1)CCN2c1cc(Br)cc(C(=O)Nc2cccc(C(=O)O)c2)c1 [Compound I-187]
PI-3 kinase γ; PI3Kγ
  inhibition at 50 µM: 94%
CYP1A2
  IC50: > 20 µM
CYP2C9
  IC50: > 20 µM
CYP2C19
  IC50: > 20 µM
CYP2D6
  IC50: > 20 µM
CYP3A4
  IC50: > 20 µM
Solubility test
  solubility at 16 h: > 50 µM
Metabolic stability test;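 further: 100% equals the compound amount at 0 min reaction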
  percentage of the test compound remained after reacting for 30 minutes: 98.9%

## COc1cc(N2CCc3nc(NC(C)=O)sc3C2)nc(OC)n1 [Compound I-214]
PI-3 kinase γ; PI3Kγ
  inhibition at 50 µM: ≥ 95%
[1]
  inhibition: > 99.5%
Metabolic stability test;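 further: 100% equals the compound amount at 0 min reaction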
  percentage of the test compound remained after reacting for 30 minutes: 98.9%

## CNC(=O)Nc1cc2n(n1)CCN2c1ccc2cnccc2c1 [Compound I-190]
PI-3 kinase γ; PI3Kγ
  inhibition at 50 µM: ≥ 95%
[1]
  inhibition: > 99.5%
Metabolic stability test;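 further: 100% equals the compound amount at 0 min reaction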
  percentage of the test compound remained after reacting for 30 minutes: 90.5%

## COc1nc(OC)nc(N2CCc3nc(NC(C)=O)sc3C2)n1 [Compound I-330]
PI-3 kinase γ; compound at 10 μmol/L
  inhibition at 10 µM: 83%
CYP1A2
  IC50: > 20 µM
CYP2C9
  IC50: > 20 µM
CYP2C19
  IC50: > 20 µM
CYP2D6
  IC50: > 20 µM
CYP3A4
  IC50: > 20 µM
Solubility test
  solubility at 16 h: > 50 µM
Metabolic stability test;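 further: 100% equals the compound amount at 0 min reaction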
  percentage of the test compound remained after reacting for 30 minutes: 99%

## CN1CCc2cc(N3CCn4nc(NC(=O)c5cc(O)no5)cc43)ccc2C1=O [Compound I-397]
PI-3 kinase γ; compound at 10 μmol/L
  inhibition at 10 µM: ≥ 95%
CYP1A2
  IC50: > 20 µM
CYP2C9
  IC50: > 20 µM
CYP2C19
  IC50: > 20 µM
CYP2D6
  IC50: > 20 µM
CYP3A4
  IC50: > 20 µM
Solubility test
  solubility at 16 h: > 50 µM
Metabolic stability test
  percentage of the test compound remained after reacting for 30 minutes: 96.7%

## CN1CCc2cc(N3CCn4nc(NC(=O)c5cncs5)cc43)ccc2C1=O [Compound I-341]
PI-3 kinase γ; compound at 10 μmol/L
  inhibition at 10 µM: ≥ 95%
[1]
  inhibition: 97.8%
Solubility test
  solubility at 16 h: > 50 µM

## CC(=O)Nc1cc2n(n1)CCN2c1ccc2c(c1)CCC(=O)N2C [Compound I-340]
PI-3 kinase γ; compound at 10 μmol/L
  inhibition at 10 µM: ≥ 95%
CYP1A2
  IC50: > 20 µM
CYP2C9
  IC50: > 20 µM
CYP2C19
  IC50: > 20 µM
CYP2D6
  IC50: > 20 µM
CYP3A4
  IC50: > 20 µM
Solubility test
  solubility at 16 h: > 50 µM
Metabolic stability test
  percentage of the test compound remained after reacting for 30 minutes: 98.3%

## CN1CCc2cc(N3CCn4nc(NC(=O)c5ccsc5)cc43)ccc2C1=O [Compound I-332]
PI-3 kinase γ; compound at 10 μmol/L
  inhibition at 10 µM: ≥ 95%
[1]
  inhibition: 96%
Metabolic stability test
  percentage of the test compound remained after reacting for 30 minutes: 87.2%

## CN1CCc2cc(N3CCn4nc(NC(=O)c5cccs5)cc43)ccc2C1=O [Compound I-331]
PI-3 kinase γ; compound at 10 μmol/L
  inhibition at 10 µM: 84%
[1]
  inhibition: 93%

## CNC(=O)Nc1cc2n(n1)CCN2c1ccc2ncccc2c1 [Compound I-177]
PI-3 kinase γ; PI3Kγ
  inhibition at 50 µM: ≥ 95%
[1]
  inhibition: > 99.5%
Solubility test
  solubility at 16 h: > 50 µM
